Measurements reported in patent US20110117189A1, “OPHTHALMIC COMPOSITIONS FOR TREATING PATHOLOGIES OF THE POSTERIOR SEGMENT OF THE EYE” (S.I.F.I. Societa' Industria Farmaceutica Italiana S.P.A., priority 2008, published 2011).

Test: In-vivo pharmacokinetic test: ocular distribution of dexamethasone after single administration to the conjunctival sac (LC/MS/MS)
Parameters: species or system pigmented rabbits
Settings: treated and non-treated eyes
Method: Dexamethasone concentration in ocular tissues was determined by a LC/MS/MS method.
Two experiments were carried out on male pigmented rabbits weighing 1.8-2.2 kg divided into 2 treatment groups, of which only one eye was treated with: 50 μl of the composition containing dexamethasone sodium phosphate in 1% xanthan base (Group I) or 50 μl of dexamethasone sodium phosphate in solution (Group II). In the first experiment the animals were then killed at the following times: 30, 60, 90, 120, 180 and 240 minutes after treatment (n=6 animals for each time point). In the second experiment the animals were killed at these times: 15, 30 and 60 minutes after treatment (n=4 animals for each time point). The active principle was determined in the aqueous humour, vitreous, retina-choroid and plasma after suitable extraction from the biological tissue, by a LC/MS/MS method.

C[C@@H]1C[C@H]2[C@@H]3CCC4=CC(=O)C=C[C@]4(C)[C@@]3(F)[C@@H](O)C[C@]2(C)[C@@]1(O)C(=O)CO [dexamethasone]
Concentrations of dexamethasone in the vitreous: less than 10 ng/ml
